{
  "source": "patent US6566401B2",
  "about": "“N-acetylcysteine compositions and methods for the treatment and prevention of drug toxicity” (The Board of Trustees of the Leland Stanford Junior …, priority 2001, dated 2003)",
  "key": {"[1]": {"experiment": "NAC treatment of subjects taking AZT: hematologic toxicity", "format": "in vivo, human", "details": "HIV disease", "text": "Results have shown that acetaminophen usage, which lowers glutathione levels exacerbates AZT toxicity. Richman, et al. (1987) N. Eng. J. Med. 317: 192-97. De Rosa et al. recently have shown that treatment with NAC which increases glutathione levels decreases the toxicity. De Rosa et al., submitted to JAMA for publication.\nIt appears that NAC provides cysteine needed to redress the excessive sulfur loss that occurs in HIV disease and specifically to replenish intracellular glutathione. […] This decreases the AZT-mediated inhibition of erythroid development, helps to improve the overall metabolism and stability of erythrocytes and their progenitors (for example, by enabling optimal functioning of the glucose-6-phosphate dehydrogenase and other energy-supplying pathways). In addition, it improves the cell's ability to withstand the production of oxidants induced by the introduction of drugs (such as AZT) and the internal production of molecules (such as TNF and HIV-TAT) that trigger intracellular oxidant production."}, "[2]": {"details": "cited from earlier work"}, "[3]": {"details": "effects counter to those reported for NAC; cited from earlier work"}},
  "data": [
    {"smiles": "CC(=O)N[C@@H](CS)C(=O)O", "note": "[NAC, N-acetylcysteine]", "values": [
      {"measurement": "effect of NAC treatment on AZT's hematologic toxicity", "setting": "[1]", "result": "decreases AZT's hematologic toxicity"},
      {"measurement": "half-cell potential for the NAC thiol/disulfide pair", "setting": "[2]", "result": "about +63 mV"}
    ]},
    {"smiles": "CC(=O)N[C@@H](CSSC[C@H](NC(C)=O)C(=O)O)C(=O)O", "note": "[oxidized form of NAC, di-n-acetylcysteine]", "values": [
      {"measurement": "bioactive dose relative to NAC (fold less than NAC)", "setting": "[3]", "result": "10-100 fold"}
    ]}
  ]
}
